Data taken from ChEMBL document CHEMBL3509421, “FDA drug approval package for diclofenac acid (NDA 22-202 CP, Ref ID: 3374276)”.

Columns and labels:
[1] = Mean Cmax of diclofenac potassium following oral dosing of Cataflam 50 mf tablet in healthy human; type: ADME, organism-based; set-up: dietary status Fed, dose 50 mg, dosed compound id 2.46815e+06, dosed compound name Diclofenac potassium, gender Mixed, regimen Single, route oral, study doses 50 mg; details: both, plasma, 50 mg
[2] = Mean median Tmax value of diclofenac potassium following oral dosing of Cataflam 50 mf tablet in healthy human; type: ADME, organism-based; set-up: dietary status Fed, dose 50 mg, dosed compound id 2.46815e+06, dosed compound name Diclofenac potassium, gender Mixed, regimen Single, route oral, study doses 50 mg; details: both, plasma, 50 mg, read-out: Median Tmax
[3] = Mean minimum Tmax value of diclofenac potassium following oral dosing of Cataflam 50 mf tablet in healthy human; type: ADME, organism-based; set-up: dietary status Fed, dose 50 mg, dosed compound id 2.46815e+06, dosed compound name Diclofenac potassium, gender Mixed, regimen Single, route oral, study doses 50 mg; details: both, plasma, 50 mg, read-out: Minimum Tmax
[4] = Mean maximum Tmax value of diclofenac potassium following oral dosing of Cataflam 50 mf tablet in healthy human; type: ADME, organism-based; set-up: dietary status Fed, dose 50 mg, dosed compound id 2.46815e+06, dosed compound name Diclofenac potassium, gender Mixed, regimen Single, route oral, study doses 50 mg; details: both, plasma, 50 mg, read-out: Maximum Tmax
[5] = Mean Kel of diclofenac potassium following oral dosing of Cataflam 50 mf tablet in healthy human; type: ADME, organism-based; set-up: dietary status Fed, dose 50 mg, dosed compound id 2.46815e+06, dosed compound name Diclofenac potassium, gender Mixed, regimen Single, route oral, study doses 50 mg; details: both, plasma, 50 mg
[6] = Mean terminal elimination half-life of diclofenac potassium following oral dosing of Cataflam 50 mf tablet in healthy human; details: both, plasma, 50 mg
[7] = Mean Cmax value of diclofenac following single oral dosing of 18 mg Zorvolex capsule in healthy human; type: ADME, organism-based; set-up: dietary status Fasting, dose 18 mg, dosed compound id 2.46815e+06, dosed compound name Diclofenac, gender Mixed, regimen Single, route oral; details: both, plasma
[8] = Geometric mean for Cmax of diclofenac following single oral dosing of 18 mg Zorvolex capsule in healthy human; type: ADME, organism-based; set-up: dietary status Fasting, dose 18 mg, dosed compound id 2.46815e+06, dosed compound name Diclofenac, gender Mixed, regimen Single, route oral; details: both, plasma
[9] = Median tmax of diclofenac following single oral dosing of 18 mg Zorvolex capsule in healthy human; type: ADME, organism-based; set-up: dietary status Fasting, dose 18 mg, dosed compound id 2.46815e+06, dosed compound name Diclofenac, gender Mixed, regimen Single, route oral; details: both, plasma, read-out: Median Tmax
[10] = Minimum tmax of diclofenac following single oral dosing of 18 mg Zorvolex capsule in healthy human; type: ADME, organism-based, Plasma; set-up: dietary status Fasting, dose 18 mg, dosed compound id 2.46815e+06, dosed compound name Diclofenac, gender Mixed, regimen Single, route oral; details: in vivo
[11] = Maximum tmax of diclofenac following single oral dosing of 18 mg Zorvolex capsule in healthy human; type: ADME, organism-based, Plasma; set-up: dietary status Fasting, dose 18 mg, dosed compound id 2.46815e+06, dosed compound name Diclofenac, gender Mixed, regimen Single, route oral; details: in vivo
[12] = Mean apparent terminal elimination rate constant value of diclofenac following single oral dosing of 18 mg Zorvolex capsule in healthy human; type: ADME, organism-based, Plasma; set-up: dietary status Fasting, dose 18 mg, dosed compound id 2.46815e+06, dosed compound name Diclofenac, gender Mixed, regimen Single, route oral; details: in vivo
[13] = Geometric mean for apparent terminal elimination rate constant of diclofenac following single oral dosing of 18 mg Zorvolex capsule in healthy human; type: ADME, organism-based, Plasma; set-up: dietary status Fasting, dose 18 mg, dosed compound id 2.46815e+06, dosed compound name Diclofenac, gender Mixed, regimen Single, route oral; details: in vivo
[14] = Mean AUC (0-t) value of diclofenac following single oral dosing of 18 mg Zorvolex capsule in healthy human; type: ADME, organism-based; set-up: dietary status Fasting, dose 18 mg, dosed compound id 2.46815e+06, dosed compound name Diclofenac, gender Mixed, regimen Single, route oral; details: both, plasma
[15] = Geometric mean for AUC (0-t) of diclofenac following single oral dosing of 18 mg Zorvolex capsule in healthy human; type: ADME, organism-based; set-up: dietary status Fasting, dose 18 mg, dosed compound id 2.46815e+06, dosed compound name Diclofenac, gender Mixed, regimen Single, route oral; details: both, plasma
[16] = Mean AUC (0-infinity) value of diclofenac following single oral dosing of 18 mg Zorvolex capsule in healthy human; type: ADME, organism-based; set-up: time infinity, dietary status Fasting, dose 18 mg, dosed compound id 2.46815e+06, dosed compound name Diclofenac, gender Mixed, regimen Single, route oral; details: both, plasma, read-out: AUC (0-infinity)
[17] = Geometric mean for AUC (0-infinity) of diclofenac following single oral dosing of 18 mg Zorvolex capsule in healthy human; type: ADME, organism-based; set-up: time infinity, dietary status Fasting, dose 18 mg, dosed compound id 2.46815e+06, dosed compound name Diclofenac, gender Mixed, regimen Single, route oral; details: both, plasma, read-out: AUC (0-infinity)
[18] = Mean Cmax value of diclofenac following single oral dosing of 35 mg Zorvolex capsule in healthy human; type: ADME, organism-based; set-up: dietary status Fasting, dose 35 mg, dosed compound id 2.46815e+06, dosed compound name Diclofenac, gender Mixed, regimen Single, route oral; details: both, plasma
clinical [19] = details: both, human, plasma, po, 35 mg
clinical [20] = details: both, human, plasma, po, 35 mg; remark: listed apart in the source
clinical [21] = details: both, human, plasma, po, 50 mg
clinical [22] = details: both, human, plasma, po, 50 mg; remark: listed apart in the source
clinical [23] = details: both, human, plasma, po, 25 mg
Description: (§1) Mean terminal elimination half-life of diclofenac following single oral dosing of 25 mg diclofenac potassium softgel capsule in healthy human

clinical [24] = details: both, human, plasma, po, 25 mg; remark: listed apart in the source
Description: as §1

clinical [25] = details: both, human, plasma, po, 50 mg; remark: listed apart in the source
Description: (§2) Mean terminal elimination half-life of diclofenac following single oral dosing of 50 mg diclofenac potassium softgel capsule in healthy human

clinical [26] = details: both, human, plasma, po, 50 mg; remark: listed apart in the source
Description: as §2

clinical [27] = details: both, human, plasma, po, 50 mg; remark: listed apart in the source
clinical [28] = details: both, human, plasma, po, 25 mg; remark: listed apart in the source
clinical [29] = details: both, human, plasma, po, 50 mg; remark: listed apart in the source
clinical [30] = details: both, human, plasma, po, 50 mg; remark: listed apart in the source
clinical [31] = details: both, human, plasma, po, 50 mg; remark: listed apart in the source
clinical [32] = details: both, human, plasma, po, 18 mg

Question: With `O=C(O)Cc1ccccc1Nc1c(Cl)cccc1Cl` [DICLOFENAC] as the compound, how does the Cmax [1] read?
Answer: 835 ng/mL

Question: And the Tmax [2]?
Answer: 1.25 h

Question: What about the Tmax [3] of the same compound?
Answer: 0.33 h

Question: What about the Tmax [4] of the same compound?
Answer: 8 h

Question: What about the k el [5] of the same compound?
Answer: 0.000136 s⁻¹

Question: And the half-life [6]?
Answer: 1.56 h

Question: And the Cmax [7]?
Answer: 496 ng/mL

Question: And the Cmax [8]?
Answer: 454 ng/mL

Question: And the Tmax [9]?
Answer: 1 h

Question: And the “Minimum Tmax” value [10]?
Answer: 0.5 h

Question: What about the “Maximum Tmax” value [11] of the same compound?
Answer: 4.5 h

Question: What about the lambda-z [12] of the same compound?
Answer: 0.399 h⁻¹

Question: And the lambda-z [13]?
Answer: 0.384 h⁻¹

Question: And the AUC(0-t) [14]?
Answer: 490 ng·h/mL

Question: What about the AUC(0-t) [15] of the same compound?
Answer: 478 ng·h/mL

Question: What about the AUC(0-inf) [16] of the same compound?
Answer: 499 ng·h/mL

Question: What about the AUC(0-inf) [17] of the same compound?
Answer: 487 ng·h/mL

Question: What about the Cmax [18] of the same compound?
Answer: 869 ng/mL

Question: What about the half-life (clinical [19]) of the same compound?
Answer: 2.1 h

Question: And the half-life (clinical [20])?
Answer: 2.24 h

Question: And the half-life (clinical [21])?
Answer: 2.27 h

Question: What about the half-life (clinical [22]) of the same compound?
Answer: 2.27 h

Question: What about the half-life (clinical [23]) of the same compound?
Answer: 1.04 h

Question: What about the half-life (clinical [24]) of the same compound?
Answer: 1.11 h

Question: What about the half-life (clinical [25]) of the same compound?
Answer: 1.1 h

Question: What about the half-life (clinical [26]) of the same compound?
Answer: 1.07 h

Question: And the half-life (clinical [27])?
Answer: 1.84 h

Question: And the half-life (clinical [28])?
Answer: 1.35 h

Question: And the half-life (clinical [29])?
Answer: 1.45 h

Question: And the half-life (clinical [30])?
Answer: 1.35 h

Question: What about the half-life (clinical [31]) of the same compound?
Answer: 2.15 h

Question: What about the half-life (clinical [32]) of the same compound?
Answer: 1.87 h
